Experiments:
Test in all cases: Serine threonine kinase inhibitory activity ([γ-33P]ATP)
Type in all cases: biochemical
ASK1 = ASK1 (Homo sapiens, UniProt Q99683); details: read-out: 50% inhibitory activity against other kinases: ASK1
Method: (§1) Inhibitory action on various purified proteins of serine, threonine kinases (p38α, JNK1, IKKβ, ASK1, TAK1, MEKK1, PKCθ, GSK-3β, PLK1, TTK, Aurora A, MEK1, MEK5, B-RAF, ERK1) was examined. As a reaction mixture, 37.5 μL of 25 mM HEPES (pH 7.5), 10 mM magnesium acetate, 1 mM DTT, each concentration of purified protein and a synthesis substrate were used. The mixture was reacted in the presence or absence of a test compound (2.5 μL/the reaction mixture) dissolved in DMSO at each concentration at room temperature for 5 min. Further, 10 μL of a mixture of 2.5 μM ATP and 10 μCi/ml [γ-^33P]ATP (DAIICHI PURE CHEMICALS) was added and the mixture was reacted at room temperature for 30 min. After quenching the reaction, the amount of phosphorylated peptide was measured by Top-Count (Packard). The concentration of the test compound necessary for 50% inhibition (IC50 value) was calculated by PRISM 3.0 (GraphPad Software).

PKCθ = PKCθ (Homo sapiens, UniProt Q04759); details: read-out: 50% inhibitory activity against other kinases: PKCθ
Method: as §1

MEKK1 = MEKK1 (Homo sapiens, UniProt Q13233); details: read-out: 50% inhibitory activity against other kinases: MEKK1
Method: as §1

ERK1 = ERK1 (Homo sapiens, UniProt P27361); details: read-out: 50% inhibitory activity against other kinases: ERK1
Method: as §1

B-RAF = B-RAF (Homo sapiens, UniProt P15056); details: read-out: 50% inhibitory activity against other kinases: B-RAF
Method: as §1

MEK1 = MEK1 (Homo sapiens, UniProt Q02750); details: read-out: 50% inhibitory activity against other kinases: MEK1
Method: as §1

TAK1 = TAK1 (Homo sapiens, UniProt O43318); details: read-out: 50% inhibitory activity against other kinases: TAK1
Method: as §1

TTK = target: T1, TTK (Homo sapiens, UniProt P33981); details: read-out: 50% inhibitory activity against other kinases: TTK
T1 sequence (P33981 1-857): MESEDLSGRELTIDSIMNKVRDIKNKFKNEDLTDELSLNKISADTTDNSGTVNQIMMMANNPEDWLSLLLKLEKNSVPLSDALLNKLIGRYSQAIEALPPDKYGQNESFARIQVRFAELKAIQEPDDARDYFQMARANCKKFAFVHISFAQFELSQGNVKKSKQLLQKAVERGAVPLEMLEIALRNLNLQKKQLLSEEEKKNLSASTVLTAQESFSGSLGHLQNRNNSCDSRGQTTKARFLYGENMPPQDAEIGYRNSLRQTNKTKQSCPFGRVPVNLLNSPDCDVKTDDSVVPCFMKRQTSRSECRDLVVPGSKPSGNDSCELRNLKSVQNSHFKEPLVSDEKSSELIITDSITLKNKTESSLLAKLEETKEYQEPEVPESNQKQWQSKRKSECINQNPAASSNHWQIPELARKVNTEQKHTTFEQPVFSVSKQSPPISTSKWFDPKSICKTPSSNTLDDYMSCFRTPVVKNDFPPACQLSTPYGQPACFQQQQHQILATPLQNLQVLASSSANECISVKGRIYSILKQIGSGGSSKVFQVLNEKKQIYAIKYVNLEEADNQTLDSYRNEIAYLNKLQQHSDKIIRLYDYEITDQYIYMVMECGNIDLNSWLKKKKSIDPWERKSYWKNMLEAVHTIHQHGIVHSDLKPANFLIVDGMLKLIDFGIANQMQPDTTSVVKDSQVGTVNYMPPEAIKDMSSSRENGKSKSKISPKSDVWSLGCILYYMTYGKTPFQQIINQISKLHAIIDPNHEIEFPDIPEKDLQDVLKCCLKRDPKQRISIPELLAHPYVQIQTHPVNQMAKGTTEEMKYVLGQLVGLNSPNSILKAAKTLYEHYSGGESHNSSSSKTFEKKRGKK
Method: as §1

p38α = p38α (Homo sapiens, UniProt Q16539); details: read-out: 50% inhibitory activity against other kinases: p38α
Method: as §1

IKKβ = target: T2, IKKβ (Homo sapiens, UniProt O14920); details: read-out: 50% inhibitory activity against other kinases: IKKβ
T2 sequence (O14920 1-756): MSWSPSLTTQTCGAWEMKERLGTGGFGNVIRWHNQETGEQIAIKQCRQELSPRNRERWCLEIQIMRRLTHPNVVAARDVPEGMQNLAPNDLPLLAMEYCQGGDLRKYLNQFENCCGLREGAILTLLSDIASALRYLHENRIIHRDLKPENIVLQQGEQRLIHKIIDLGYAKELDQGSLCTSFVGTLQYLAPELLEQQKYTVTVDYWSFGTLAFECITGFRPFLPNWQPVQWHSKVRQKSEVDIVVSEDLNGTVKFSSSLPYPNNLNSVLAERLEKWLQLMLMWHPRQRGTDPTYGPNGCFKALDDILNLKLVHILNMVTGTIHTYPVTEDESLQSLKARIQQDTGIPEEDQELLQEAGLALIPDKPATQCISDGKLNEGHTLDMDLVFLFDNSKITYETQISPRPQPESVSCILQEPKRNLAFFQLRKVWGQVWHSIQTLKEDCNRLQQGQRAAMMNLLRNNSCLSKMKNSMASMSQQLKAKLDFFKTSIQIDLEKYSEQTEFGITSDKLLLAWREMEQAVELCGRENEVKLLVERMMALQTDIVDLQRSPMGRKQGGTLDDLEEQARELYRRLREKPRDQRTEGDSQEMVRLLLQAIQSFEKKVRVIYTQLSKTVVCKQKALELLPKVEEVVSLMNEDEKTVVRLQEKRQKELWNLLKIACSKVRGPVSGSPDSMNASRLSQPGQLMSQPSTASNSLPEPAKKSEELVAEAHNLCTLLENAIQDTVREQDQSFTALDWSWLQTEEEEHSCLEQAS
Method: as §1

PLK1 = PLK1 (Homo sapiens, UniProt P53350); details: read-out: 50% inhibitory activity against other kinases: PLK1
Method: as §1

Aurora A = Aurora A (Homo sapiens, UniProt O14965); details: read-out: 50% inhibitory activity against other kinases: Aurora A
Method: as §1

MEK5 = MEK5 (Homo sapiens, UniProt Q13163); details: read-out: 50% inhibitory activity against other kinases: MEK5
Method: as §1

JNK1 = JNK1 (Homo sapiens, UniProt P45983); details: read-out: 50% inhibitory activity against other kinases: JNK1
Method: as §1

GSK-3β = GSK-3β (Homo sapiens, UniProt P49841); details: [γ-33P]ATP kinase panel; read-out: IC50 values against GSK-3β
Method: as §1, with “Further, 10 μL of a mixture of 2.5 μM ATP and 10 μCi/ml [γ-^33P]ATP (DAIICHI PURE CHEMICALS) was added and the mixture was reacted at room temperature for 30 min.” left out, “(Packard).” for “(Packard). The concentration of the test compound necessary for 50% inhibition (IC50 value) was calculated by PRISM 3.0 (GraphPad Software).”

Chain of p38α (Q16539 whole entry): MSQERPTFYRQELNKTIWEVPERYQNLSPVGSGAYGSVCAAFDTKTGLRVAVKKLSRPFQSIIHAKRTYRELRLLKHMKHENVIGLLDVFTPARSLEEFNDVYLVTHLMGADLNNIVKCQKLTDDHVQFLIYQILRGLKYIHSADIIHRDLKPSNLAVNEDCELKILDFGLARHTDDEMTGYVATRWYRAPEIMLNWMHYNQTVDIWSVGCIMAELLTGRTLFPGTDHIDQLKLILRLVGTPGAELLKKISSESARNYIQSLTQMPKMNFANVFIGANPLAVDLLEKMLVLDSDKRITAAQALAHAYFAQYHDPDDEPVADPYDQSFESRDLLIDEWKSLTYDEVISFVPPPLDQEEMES
Chain of MEK1 (Q02750 whole entry): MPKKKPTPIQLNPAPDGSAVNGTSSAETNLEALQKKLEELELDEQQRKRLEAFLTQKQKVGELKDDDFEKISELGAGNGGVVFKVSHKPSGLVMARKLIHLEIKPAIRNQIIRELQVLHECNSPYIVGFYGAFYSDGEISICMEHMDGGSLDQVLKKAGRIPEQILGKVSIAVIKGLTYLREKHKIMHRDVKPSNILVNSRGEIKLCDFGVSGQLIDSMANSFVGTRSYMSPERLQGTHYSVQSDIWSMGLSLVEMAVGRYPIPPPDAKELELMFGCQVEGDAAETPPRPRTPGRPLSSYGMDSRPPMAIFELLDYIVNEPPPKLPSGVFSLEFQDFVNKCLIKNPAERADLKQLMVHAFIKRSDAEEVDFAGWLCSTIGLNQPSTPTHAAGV
Chain of ASK1 (Q99683 whole entry): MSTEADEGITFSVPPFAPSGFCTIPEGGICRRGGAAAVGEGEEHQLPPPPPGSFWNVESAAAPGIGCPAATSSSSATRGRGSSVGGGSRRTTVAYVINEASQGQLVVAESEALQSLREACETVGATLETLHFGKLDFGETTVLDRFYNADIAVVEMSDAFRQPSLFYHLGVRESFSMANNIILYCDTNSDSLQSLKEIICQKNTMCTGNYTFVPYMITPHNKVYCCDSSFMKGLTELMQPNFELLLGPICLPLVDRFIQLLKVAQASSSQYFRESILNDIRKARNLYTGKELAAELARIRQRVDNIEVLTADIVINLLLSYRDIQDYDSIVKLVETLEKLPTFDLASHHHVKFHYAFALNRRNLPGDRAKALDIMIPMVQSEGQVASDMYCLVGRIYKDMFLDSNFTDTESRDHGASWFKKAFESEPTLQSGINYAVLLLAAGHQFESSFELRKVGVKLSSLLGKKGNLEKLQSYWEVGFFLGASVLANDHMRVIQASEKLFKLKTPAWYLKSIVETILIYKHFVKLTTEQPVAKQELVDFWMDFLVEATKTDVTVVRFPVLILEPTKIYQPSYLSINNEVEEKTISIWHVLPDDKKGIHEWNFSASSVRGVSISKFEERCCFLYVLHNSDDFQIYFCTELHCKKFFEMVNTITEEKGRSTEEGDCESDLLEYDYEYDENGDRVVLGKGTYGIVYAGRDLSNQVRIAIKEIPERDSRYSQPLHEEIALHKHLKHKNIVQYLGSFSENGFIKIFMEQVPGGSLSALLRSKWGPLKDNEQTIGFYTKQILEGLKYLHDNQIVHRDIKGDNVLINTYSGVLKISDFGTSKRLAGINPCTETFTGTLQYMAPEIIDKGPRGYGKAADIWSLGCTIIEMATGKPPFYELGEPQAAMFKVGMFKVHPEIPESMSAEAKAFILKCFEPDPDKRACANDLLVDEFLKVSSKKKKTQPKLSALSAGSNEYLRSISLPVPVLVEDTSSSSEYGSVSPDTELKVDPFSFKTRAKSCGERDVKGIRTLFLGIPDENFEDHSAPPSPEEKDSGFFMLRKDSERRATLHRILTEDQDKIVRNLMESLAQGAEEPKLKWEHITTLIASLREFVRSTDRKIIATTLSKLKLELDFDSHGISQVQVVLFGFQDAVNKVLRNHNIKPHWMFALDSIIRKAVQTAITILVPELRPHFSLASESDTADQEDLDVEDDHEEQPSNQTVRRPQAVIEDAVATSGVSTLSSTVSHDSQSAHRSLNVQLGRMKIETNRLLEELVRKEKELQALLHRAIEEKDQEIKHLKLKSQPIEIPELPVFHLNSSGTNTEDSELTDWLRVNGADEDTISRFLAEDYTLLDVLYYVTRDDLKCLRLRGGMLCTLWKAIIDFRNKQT
Chain of MEKK1 (Q13233 whole entry, species assumed): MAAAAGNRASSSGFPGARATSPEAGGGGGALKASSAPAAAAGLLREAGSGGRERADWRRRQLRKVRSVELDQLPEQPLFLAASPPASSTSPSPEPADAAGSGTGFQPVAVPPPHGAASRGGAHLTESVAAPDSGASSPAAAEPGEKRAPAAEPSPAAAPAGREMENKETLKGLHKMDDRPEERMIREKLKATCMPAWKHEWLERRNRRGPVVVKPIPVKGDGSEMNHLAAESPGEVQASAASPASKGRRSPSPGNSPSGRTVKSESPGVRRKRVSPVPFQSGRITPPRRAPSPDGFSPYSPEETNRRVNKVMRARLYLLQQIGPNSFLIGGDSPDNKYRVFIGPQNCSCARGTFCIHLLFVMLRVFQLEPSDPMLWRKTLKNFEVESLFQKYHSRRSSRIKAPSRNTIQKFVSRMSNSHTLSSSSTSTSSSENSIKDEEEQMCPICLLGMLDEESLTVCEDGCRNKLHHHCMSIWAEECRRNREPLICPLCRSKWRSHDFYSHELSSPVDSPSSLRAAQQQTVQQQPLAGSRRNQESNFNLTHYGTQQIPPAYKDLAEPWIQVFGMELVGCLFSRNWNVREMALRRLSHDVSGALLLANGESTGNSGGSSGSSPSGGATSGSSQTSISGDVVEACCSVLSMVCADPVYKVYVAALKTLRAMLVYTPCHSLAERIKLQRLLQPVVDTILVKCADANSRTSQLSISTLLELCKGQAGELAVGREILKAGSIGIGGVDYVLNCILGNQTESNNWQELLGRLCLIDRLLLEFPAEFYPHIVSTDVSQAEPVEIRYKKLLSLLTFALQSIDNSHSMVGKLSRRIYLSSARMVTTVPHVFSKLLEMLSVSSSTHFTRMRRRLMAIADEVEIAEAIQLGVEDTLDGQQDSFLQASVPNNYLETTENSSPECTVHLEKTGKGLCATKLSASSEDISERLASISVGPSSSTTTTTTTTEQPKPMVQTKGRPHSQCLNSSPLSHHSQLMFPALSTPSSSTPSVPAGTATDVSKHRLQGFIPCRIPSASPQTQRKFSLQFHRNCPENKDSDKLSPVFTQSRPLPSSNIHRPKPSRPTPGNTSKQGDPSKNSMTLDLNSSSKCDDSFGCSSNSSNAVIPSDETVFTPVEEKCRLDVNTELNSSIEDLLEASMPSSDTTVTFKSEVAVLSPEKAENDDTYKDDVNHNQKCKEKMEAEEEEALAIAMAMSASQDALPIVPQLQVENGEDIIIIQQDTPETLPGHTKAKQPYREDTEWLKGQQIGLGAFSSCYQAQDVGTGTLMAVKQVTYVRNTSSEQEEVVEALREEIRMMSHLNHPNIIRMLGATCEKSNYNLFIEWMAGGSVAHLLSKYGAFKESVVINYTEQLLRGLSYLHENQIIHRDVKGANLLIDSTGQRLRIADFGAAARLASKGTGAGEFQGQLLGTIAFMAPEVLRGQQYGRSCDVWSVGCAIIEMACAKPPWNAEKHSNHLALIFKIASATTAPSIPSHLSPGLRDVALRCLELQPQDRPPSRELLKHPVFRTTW
Chain of PKCθ (Q04759 whole entry): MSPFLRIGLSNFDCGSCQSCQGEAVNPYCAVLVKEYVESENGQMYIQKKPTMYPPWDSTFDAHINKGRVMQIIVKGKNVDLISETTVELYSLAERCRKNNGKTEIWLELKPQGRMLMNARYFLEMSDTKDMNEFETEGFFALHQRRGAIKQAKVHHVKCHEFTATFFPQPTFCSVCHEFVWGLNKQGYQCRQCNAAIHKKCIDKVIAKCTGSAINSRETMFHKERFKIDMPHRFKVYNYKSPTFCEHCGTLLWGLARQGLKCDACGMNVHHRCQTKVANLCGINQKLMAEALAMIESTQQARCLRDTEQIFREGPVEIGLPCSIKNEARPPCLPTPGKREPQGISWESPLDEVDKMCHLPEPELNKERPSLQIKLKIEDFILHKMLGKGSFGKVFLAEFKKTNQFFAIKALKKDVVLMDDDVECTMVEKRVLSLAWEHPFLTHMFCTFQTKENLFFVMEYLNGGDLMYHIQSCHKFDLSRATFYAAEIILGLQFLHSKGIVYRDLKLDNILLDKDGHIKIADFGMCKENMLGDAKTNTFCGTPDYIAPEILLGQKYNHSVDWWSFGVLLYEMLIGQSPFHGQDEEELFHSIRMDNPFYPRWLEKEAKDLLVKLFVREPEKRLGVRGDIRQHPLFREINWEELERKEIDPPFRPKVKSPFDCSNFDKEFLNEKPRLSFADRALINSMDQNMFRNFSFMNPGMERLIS
Chain of JNK1 (P45983 whole entry): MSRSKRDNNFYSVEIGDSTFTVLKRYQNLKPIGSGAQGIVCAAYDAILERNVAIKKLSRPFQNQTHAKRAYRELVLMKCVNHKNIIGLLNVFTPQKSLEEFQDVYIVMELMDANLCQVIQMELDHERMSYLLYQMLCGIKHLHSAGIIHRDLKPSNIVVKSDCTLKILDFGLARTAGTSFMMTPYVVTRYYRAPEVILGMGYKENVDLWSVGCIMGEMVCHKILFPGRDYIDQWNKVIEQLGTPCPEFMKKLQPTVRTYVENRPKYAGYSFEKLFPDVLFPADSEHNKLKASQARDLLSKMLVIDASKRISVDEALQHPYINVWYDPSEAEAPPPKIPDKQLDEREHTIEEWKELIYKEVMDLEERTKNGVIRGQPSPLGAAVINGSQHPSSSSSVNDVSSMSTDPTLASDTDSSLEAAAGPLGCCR

Row | IC50 (ASK1) [µM] | IC50 (PKCθ) [µM] | IC50 (MEKK1) [µM] | IC50 (ERK1) [µM] | IC50 (B-RAF) [µM] | IC50 (MEK1) [µM] | IC50 (TAK1) [µM] | IC50 (TTK) [µM] | IC50 (p38α) [µM] | IC50 (IKKβ) [µM] | IC50 (PLK1) [µM] | IC50 (Aurora A) [µM] | IC50 (MEK5) [µM] | IC50 (JNK1) [µM] | IC50 (GSK-3β) [µM] | Structure (SMILES)
1 | > 10 | > 10 | > 10 | > 10 | > 10 | > 10 | > 10 | > 10 | > 10 | > 10 | > 10 | > 10 | > 10 | > 10 | 0.14 | COc1ccc(CSc2nnc(-c3ccnc(N)c3)o2)cc1F [Example 209, 4-[5-[(3-fluoro-4-methoxybenzyl)thio]-1,3,4-oxadiazol-2-yl]pyridin-2-amine]
2 | > 10 | > 10 | > 10 | > 10 | > 10 | > 10 | > 10 | > 10 | > 10 | > 10 | > 10 | > 10 | > 10 | > 10 | 0.19 | COc1ccc(-c2coc3ccc(-c4nnc(SC)o4)cc23)cc1 [Example 165, 2-[3-(4-methoxyphenyl)-1-benzofuran-5-yl]-5-(methylthio)-1,3,4-oxadiazole]
3 | > 10 | > 10 | > 10 | > 10 | > 10 | > 10 | > 10 | > 10 | > 10 | > 10 | > 10 | > 10 | > 10 | > 10 | – | COc1ccc(CSc2nnc(-c3ccc4c(c3)OCO4)o2)cc1F [Reference Example 71, 2-(1,3-benzodioxol-5-yl)-5-[(3-fluoro-4-methoxybenzyl)thio]-1,3,4-oxadiazole, reference compound]
